The results in this text go back to patent publication US11066392B2, “Inhibitors of indoleamine 2,3-dioxygenase and methods of their use” (BRISTOL-MYERS SQUIBB COMPANY, priority 2017, dated 2021).

The assay has as its target indoleamine 2,3-dioxygenase (IDO) (Homo sapiens, UniProt P14902). Briefly: HeLa cell-based indoleamine 2,3-dioxygenase (IDO) assay (kynurenine production, IFNγ-stimulated). As to conditions: HeLa cells.
[1] abbreviates: potency class, read-out: Patent Potency Hela IC50 A < 10 nM, B > 10 nM, C > 100 nM.
[2] abbreviates: IFNγ 25 ng/mL, 48 hour incubation, read-out: IDO Hela IC50.

Read-outs that look alike come from different tables or passages of the source.

indoleamine 2,3-dioxygenase (IDO), sequence (P14902 whole entry): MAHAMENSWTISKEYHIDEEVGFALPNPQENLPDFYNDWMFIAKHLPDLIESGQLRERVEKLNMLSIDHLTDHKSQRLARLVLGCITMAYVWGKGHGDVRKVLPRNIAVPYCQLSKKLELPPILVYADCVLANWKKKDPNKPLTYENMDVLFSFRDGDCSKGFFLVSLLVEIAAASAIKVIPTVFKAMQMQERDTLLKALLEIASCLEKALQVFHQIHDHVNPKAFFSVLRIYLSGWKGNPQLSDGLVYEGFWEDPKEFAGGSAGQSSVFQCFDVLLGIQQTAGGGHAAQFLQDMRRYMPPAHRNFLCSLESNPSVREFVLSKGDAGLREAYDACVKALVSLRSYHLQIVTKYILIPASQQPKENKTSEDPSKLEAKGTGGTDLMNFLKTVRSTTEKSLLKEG

As for `CC[C@@H](NC(=O)c1ccc(OC)nc1)[C@H]1CC[C@@H](c2ccn(C)c(=O)c2)CC1` (single isomer, unassigned) [Example 31a, 6-Methoxy-N-(1-(4-(1-methyl-2-oxo-1,2-dihydropyridin-4-yl)cyclohexyl)propyl)nicotinamide], the IC50 – broadly, the concentration that gives 50% inhibition – under setting [1] is greater than 0.1 µM.
As to `CCC(NC(=O)c1ccc(OC)nc1)C1CCC(c2ccnc(OC)c2C)CC1` (single isomer, unassigned) [Example 28b, 6-Methoxy-N-(1-((1s,4s)-4-(2-methoxy-3-methylpyridin-4-yl)cyclohexyl)propyl)nicotinamide], the IC50 under setting [1] is less than 0.01 µM.
With `CCC(NC(=O)c1ccc(OC)nc1)C1CCC(c2cccc(OC(F)F)n2)CC1` (single isomer, unassigned) [Example 48a, N-(1-(4-(6-(difluoromethoxy)pyridin-2-yl)cyclohexyl)propyl)-6-methoxynicotinamide], under setting [2], the IC50 stood at 0.36 µM.
For the molecule `CCC(NC(=O)c1cnc(OC)nc1)C1CCC(c2ccnc3c(F)cc(F)cc23)CC1` (single isomer, unassigned) [Example 58d], the IC50 under setting [1] was less than 0.01 µM.
As for `COC[C@H](NC(=O)c1ccc(OC)nc1)[C@H]1CC[C@@H](c2ccnc(OC)c2C(F)F)CC1` (single isomer, unassigned) [Example 51d, N-(1-(4-(3-(difluoromethyl)-2-methoxypyridin-4-yl)cyclohexyl)-2-methoxyethyl)-6-methoxynicotinamide], the half-maximal inhibitory concentration (IC50) under setting [2] is 0.1 µM.
In the case of `CCC(NC(=O)c1ccc(OC)nc1)C1CCC(c2cccc(OC(F)F)n2)CC1` (single isomer, unassigned) [Example 48d, N-(1-(4-(6-(difluoromethoxy)pyridin-2-yl)cyclohexyl)propyl)-6-methoxynicotinamide], under setting [1], the IC50 was greater than 0.1 µM.
Turning to `CC[C@@H](NC(=O)c1ccc(OC)nc1)[C@H]1CC[C@@H](c2ccnc3ncccc32)CC1` (single isomer, unassigned) [Example 53a, N-(1-(4-(1,8-naphthyridin-4-yl)cyclohexyl)propyl)-6-methoxynicotinamide], under setting [2], the IC50 was determined as 0.01 µM.
Take `CC[C@@H](NC(=O)c1ccc(OC)nc1)[C@H]1CC[C@@H](c2ccnc3c(F)cccc32)CC1` (single isomer, unassigned) [Example 59a, N-(1-(4-(8-fluoroquinolin-4-yl)cyclohexyl)propyl)-6-methoxynicotinamide]: the IC50 under setting [2] came out at 0.1 µM.
The same measure, in the same setting: next, `CCOC[C@@H](NC(=O)c1ccc(OC)nc1)[C@H]1CC[C@@H](c2ccnc3ccc(C(F)(F)F)cc32)CC1` (single isomer, unassigned) [Example 13d, N-(2-Ethoxy-1-(4-(6-(trifluoromethyl)quinolin-4-yl)cyclohexyl)ethyl)-6-methoxynicotinamide]: 0.94 µM.
In the case of `CCC(NC(=O)c1ccc(OC)nc1)C1CCC(c2ccnc(F)c2C)CC1` (single isomer, unassigned) [Example 27b, N-(1-((1s,4s)-4-(2-Fluoro-3-methylpyridin-4-yl)cyclohexyl)propyl)-6-methoxynicotinamide], the IC50 under setting [1] is less than 0.01 µM.
On to `CC[C@H](NC(=O)c1ccc(OC)nc1)[C@H]1CC[C@@H](c2cncc(OC)c2)CC1` (single isomer, unassigned) [Example 50a, 6-methoxy-N-(1-(4-(5-methoxypyridin-3-yl)cyclohexyl)propyl)nicotinamide], for which the IC50 under setting [2] was found to be 0.99 µM.
On to `CC[C@H](NC(=O)c1cnc(C)nc1)[C@H]1CC[C@H](c2ccnc3c(F)cccc32)CC1` (single isomer, unassigned) [Example 61d, N-(1-(4-(8-fluoroquinolin-4-yl)cyclohexyl)propyl)-2-methylpyrimidine-5-carboxamide], for which the IC50 under setting [2] worked out at 0.02 µM.
For the molecule `CCC(NC(=O)c1ccc(OC)nc1)C1CCC(c2cccc(=O)n2C)CC1` (single isomer, unassigned) [Example 32b, 6-Methoxy-N-(1-(4-(1-methyl-6-oxo-1,6-dihydropyridin-2-yl)cyclohexyl)propyl)nicotinamide], the half-maximal inhibitory concentration (IC50) under setting [2] amounted to 0.08 µM.
Turning to `CCC(NC(=O)c1ccc(OC)nc1)C1CCC(c2ccnc(F)c2C)CC1` (single isomer, unassigned) [Example 68-1, N-(1-((1r,4r)-4-(2-Fluoro-3-methylpyridin-4-yl)cyclohexyl)propyl)-6-methoxynicotinamide], the IC50 under setting [1] is greater than 0.01 µM.
`CCOC[C@@H](NC(=O)c1ccc(OC)nc1)[C@H]1CC[C@@H](c2ccnc3ccc(C(F)(F)F)cc32)CC1` (single isomer, unassigned) [Example 13b, N-(2-Ethoxy-1-(4-(6-(trifluoromethyl)quinolin-4-yl)cyclohexyl)ethyl)-6-methoxynicotinamide]: under setting [1], the IC50 is less than 0.01 µM.
Consider `COCC(NC(=O)c1ccc(OC)nc1)C1CCC(c2ccnc3ccc(C(F)(F)F)cc23)CC1` (single isomer, unassigned) [Example 12a, 6-Methoxy-N-(2-methoxy-1-((1s,4s)-4-(6-(trifluoromethyl)quinolin-4-yl)cyclohexyl)ethyl)nicotinamide], for which the IC50 under setting [2] is 0.08 µM.
Same read-out and setting: next, `COCCOCC(NC(=O)c1cnc(OC)nc1)C1CCC(c2ccnc3ccc(F)cc23)CC1` (single isomer, unassigned) [Example 16a, N-(1-((1s,4s)-4-(6-Fluoroquinolin-4-yl)cyclohexyl)-2-(2-methoxyethoxy)ethyl)-2-methoxypyrimidine-5-carboxamide]: 0.04 µM; `CCC(NC(=O)c1ccc(OC)nc1)C1CCC(c2ccnc3c(F)cc(F)cc23)CC1` (single isomer, unassigned) [Example 57c]: 0.13 µM.
For the molecule `CCC(NC(=O)c1ccc(OC)nc1)C1CCC(c2ccnc3c(C(F)(F)F)cccc23)CC1` (single isomer, unassigned) [Example 18a, 6-Methoxy-N-(1-((1s,4s)-4-(8-(trifluoromethyl)quinolin-4-yl)cyclohexyl)propyl)nicotinamide], the IC50 under setting [2] was 0.83 µM.
For the molecule `CCC(NC(=O)c1ccc(OC)nc1)C1CCC(c2cccc(C(F)(F)F)n2)CC1` (single isomer, unassigned) [Example 47d, 6-methoxy-N-(1-(4-(6-(trifluoromethyl)pyridin-2-yl)cyclohexyl)propyl)nicotinamide], under setting [2], the IC50 worked out at 0.29 µM.
As to `CCC(NC(=O)c1ccc(OC)nc1)C1CCC(c2cccc(C(F)(F)F)n2)CC1` (single isomer, unassigned) [Example 47a, 6-methoxy-N-(1-(4-(6-(trifluoromethyl)pyridin-2-yl)cyclohexyl)propyl)nicotinamide], the IC50 under setting [2] was 0.18 µM.
The same measure, in the same setting: in the case of `CC[C@@H](NC(=O)c1ccc(OC)nc1)[C@H]1CC[C@@H](c2ccnc(F)c2C)CC1` (single isomer, unassigned) [Example 56c, N-(1-(4-(2-fluoro-3-methylpyridin-4-yl)cyclohexyl)propyl)-6-methoxynicotinamide] it was 0.6 µM; in that of `CCC(NC(=O)c1ccc(OC)nc1)C1CCC(c2ccnc(OC)c2C(F)F)CC1` (single isomer, unassigned) [Example 24b, N-(1-((1s,4s)-4-(3-(Difluoromethyl)-2-methoxypyridin-4-yl)cyclohexyl)propyl)-6-methoxynicotinamide], 0.9 µM.
As for `CC[C@@H](NC(=O)c1ccc(OC)nc1)[C@H]1CC[C@@H](c2cnc3ccccc3c2)CC1` (single isomer, unassigned) [Example 20d, 6-Methoxy-N-(1-(4-(quinolin-3-yl)cyclohexyl)propyl)nicotinamide], the IC50 under setting [2] was determined as 0.06 µM.
Take `CCC(NC(=O)c1ccc(OC)nc1)C1CCC(c2ccnc(OC(F)F)c2)CC1` (single isomer, unassigned) [Example 30d, N-(1-(4-(2-(Difluoromethoxy)pyridin-4-yl)cyclohexyl)propyl)-6-methoxynicotinamide]: the IC50 under setting [2] stood at 0.25 µM.
On to `CCC(NC(=O)c1ccc(OC)nc1)C1CCC(c2cccc(C(F)(F)F)n2)CC1` (single isomer, unassigned) [Example 47b, 6-methoxy-N-(1-(4-(6-(trifluoromethyl)pyridin-2-yl)cyclohexyl)propyl)nicotinamide], for which the IC50 under setting [1] was greater than 0.1 µM.
As to `CC[C@@H](NC(=O)c1cnc(OC)nc1)[C@H]1CC[C@@H](c2ccnc3c(F)cccc32)CC1` (single isomer, unassigned) [Example 60a, N-(1-(4-(8-fluoroquinolin-4-yl)cyclohexyl)propyl)-2-methoxypyrimidine-5-carboxamide], the IC50 under setting [2] came to 0.82 µM.
With `CCC(NC(=O)c1ccc(OC)nc1)C1CCC(c2ccnc(OC(F)F)c2)CC1` (single isomer, unassigned) [Example 30b, N-(1-(4-(2-(Difluoromethoxy)pyridin-4-yl)cyclohexyl)propyl)-6-methoxynicotinamide], the IC50 under setting [2] turned out to be 0.02 µM.
